The values below come from ChEMBL document CHEMBL1132752, “Structure-activity relationships of trans-3,5-disubstituted pyrrolidinylthio-1beta-methylcarbapenems. Part 2: J-111,225, J-114,870, J-114,871 and related compounds” (2000).

Common to all, as to assay type: functional
For one assay, the species on record is Sus scrofa. Put plainly: Porcine renal DHP-1 susceptibility.
Assay [1] deals with Staphylococcus aureus. Briefly: In vitro antimicrobial activity against Staphylococcus aureus 209P NIHJ JCI.
The test system of assay [2] is Staphylococcus aureus. Put plainly: In vitro antimicrobial activity against methicillin resistant Staphylococcus aureus pMS520.
Another assay deals with Escherichia coli. Briefly: In vitro antimicrobial activity against Escherichia coli NIHJ JC2.
Another assay deals with Rattus norvegicus. Put plainly: Epileptogenicity at 200 ug in rat intracerebroventricular assay.
For assay [3], the system named is Pseudomonas aeruginosa. Briefly: In vitro antimicrobial activity against ceftazidime resistant Pseudomonas aeruginosa AKR 17.
For assay [4], the system named is Staphylococcus epidermidis. Briefly: In vitro antimicrobial activity against methicillin resistant Staphylococcus epidermidis MB5181.
Assay [5] concerns Pseudomonas aeruginosa. Put plainly: In vitro antimicrobial activity against Pseudomonas aeruginosa AK 109.

Values after ≈ are worked out from the molar mass of the structure shown.

In the case of `C[C@@H](O)[C@H]1C(=O)N2C(C(=O)O)=C(SCCNC=N)C[C@H]12.O`, the Susceptibility in the assay listed under Sus scrofa amounted to 1. The MIC (usually the lowest concentration found to suppress growth) against Staphylococcus aureus [1] was less than 0.006 µg/mL; with Staphylococcus aureus [2], 50 µg/mL; against Escherichia coli it was 0.1 µg/mL; in the assay on Pseudomonas aeruginosa [3] it was 3.13 µg/mL; in assay [4] it was 50 µg/mL; in the assay on Pseudomonas aeruginosa [5] it was 1.56 µg/mL. Besides, the Epileptogenicity in the assay on Rattus norvegicus was determined as 5.
In the assay listed under Sus scrofa, `CC(N)c1ccc([C@H]2C[C@H](SC3=C(C(=O)O)N4C(=O)[C@H]([C@@H](C)O)[C@H]4[C@H]3C)CN2)cc1` (stereo not given in full) returned a Susceptibility of 0.55. The MIC in the assay on Staphylococcus aureus [1] was less than 0.006 µg/mL; in the assay on Staphylococcus aureus [2], 1.56 µg/mL (≈ 3.61 µM); in the assay with Escherichia coli it was 0.025 µg/mL (≈ 0.0579 µM); against Pseudomonas aeruginosa [3] it was 3.13 µg/mL (≈ 7.25 µM); in assay [4], 0.78 µg/mL (≈ 1.81 µM); against Pseudomonas aeruginosa [5], 0.78 µg/mL (≈ 1.81 µM). Besides, in the assay with Rattus norvegicus, the Epileptogenicity is given as 0.
In the assay filed under Sus scrofa, `CNCc1ccc([C@H]2C[C@H](SC3=C(C(=O)O)N4C(=O)[C@H]([C@@H](C)O)[C@H]4[C@H]3C)CN2)s1` registered a Susceptibility of 0.35. Further, the MIC is less than 0.006 µg/mL in the assay on Staphylococcus aureus [1]; 1.56 µg/mL (≈ 3.57 µM) in the assay on Staphylococcus aureus [2]; 0.025 µg/mL (≈ 0.0571 µM) in the assay on Escherichia coli; 3.13 µg/mL (≈ 7.15 µM) against Pseudomonas aeruginosa [3]; 3.13 µg/mL (≈ 7.15 µM) in assay [4]; 1.56 µg/mL (≈ 3.57 µM) in the assay with Pseudomonas aeruginosa [5]. The compound also returned an Epileptogenicity with Rattus norvegicus of 3.
`C[C@@H](O)[C@H]1C(=O)N2C(C(=O)O)=C(S[C@@H]3CN[C@@H](c4ccc(CN)s4)C3)[C@H](C)[C@H]12` showed a Susceptibility in the assay listed under Sus scrofa of 0.84. Besides, the MIC is less than 0.006 µg/mL in the assay with Staphylococcus aureus [1]; 1.56 µg/mL (≈ 3.68 µM) with Staphylococcus aureus [2]; 0.025 µg/mL (≈ 0.059 µM) against Escherichia coli; 3.13 µg/mL (≈ 7.39 µM) in the assay on Pseudomonas aeruginosa [3]; 1.56 µg/mL (≈ 3.68 µM) in assay [4]; 0.78 µg/mL (≈ 1.84 µM) in the assay on Pseudomonas aeruginosa [5]. Besides, the Epileptogenicity in the assay on Rattus norvegicus is 5.
On to `C[C@@H](O)[C@H]1C(=O)N2C(C(=O)O)=C(S[C@@H]3CN[C@@H](c4ccc(C5(N)CC5)cc4)C3)[C@H](C)[C@H]12`, for which, in the assay listed under Sus scrofa, the Susceptibility stood at 0.32. In addition, the MIC was less than 0.006 µg/mL against Staphylococcus aureus [1]; 1.56 µg/mL (≈ 3.52 µM) against Staphylococcus aureus [2]; 0.025 µg/mL (≈ 0.0564 µM) in the assay with Escherichia coli; 6.25 µg/mL (≈ 14.1 µM) in the assay on Pseudomonas aeruginosa [3]; 1.56 µg/mL (≈ 3.52 µM) in assay [4]; 3.13 µg/mL (≈ 7.06 µM) in the assay on Pseudomonas aeruginosa [5]. This compound also yielded an Epileptogenicity with Rattus norvegicus of 0.
